Test results as given in BindingDB's records for doi:10.1016/j.bmcl.2009.05.085 (Targacept, 2009).
pKi: −log10 of the molar value.

Target: Neuronal acetylcholine receptor subunit alpha-7 (Mus musculus, UniProt P49582)
Assay: Displacement of [125I]alpha-bungarotoxin from alpha7 nAChR in C57BL/6J mouse hippocampal membrane

Sequence of Neuronal acetylcholine receptor subunit alpha-7 (P49582 whole entry): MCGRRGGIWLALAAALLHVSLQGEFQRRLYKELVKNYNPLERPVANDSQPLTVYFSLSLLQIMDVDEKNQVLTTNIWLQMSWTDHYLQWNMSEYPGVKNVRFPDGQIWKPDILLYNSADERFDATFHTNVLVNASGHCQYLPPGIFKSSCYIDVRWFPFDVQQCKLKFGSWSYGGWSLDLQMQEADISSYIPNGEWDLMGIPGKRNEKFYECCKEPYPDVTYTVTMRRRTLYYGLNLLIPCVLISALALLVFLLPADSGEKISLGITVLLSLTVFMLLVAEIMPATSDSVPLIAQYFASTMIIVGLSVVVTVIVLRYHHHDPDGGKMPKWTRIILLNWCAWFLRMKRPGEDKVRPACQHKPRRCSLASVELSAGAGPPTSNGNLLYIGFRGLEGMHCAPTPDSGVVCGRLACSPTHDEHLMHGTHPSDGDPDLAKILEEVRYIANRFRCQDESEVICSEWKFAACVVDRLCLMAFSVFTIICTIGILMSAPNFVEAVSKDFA

SMILES: O=C(O)[C@@H](O)[C@H](O)[C@H](O)[C@@H](O)C(=O)O
- pKi: < 5.00
